# Biological target: human DGAT2 (Homo sapiens (Human), UniProt Q96PD7)
# Assay: Measurement of inhibitory effect against DGAT2 enzyme activity (SPA, Phospholipid FlashPlate, [14C]-TG production)
# Assay type: biochemical
# Details: recombinant human DGAT2 membrane protein from Sf-21 cells; inhibition of [14C]-TG production; 37° C.
# From the text: Experimental Example: Measurement of Inhibitory Effect Against DGAT2 Enzyme Activity
# 1. Preparation of DGAT2 Expression Vector
# In order to prepare the pBacPAK9-DGAT2, which is DGAT2 expression vector, the human DGAT2 gene amplified by polymerase chain reaction (PCR) was cloned into the EcoR1 and Xho1 sites of the pBacPAK9 (clonctech) vector. The nucleotide sequence of the primers used in PCR was the forward primer 5′ […] and the reverse primer 5′ […]. The composition of the reaction solution was to contain 50 ng of cDNA clone (OriGene), 200 μM of dATP, dCTP, dTTP, dGTP, 200 nM of each primer, 1 unit of Tag DNA Polymerase (Toyobo), 1x PCR buffer, and the final volume was adjusted to 20 μl. The reaction conditions were denatured at 95° C. for 5 minutes, followed by 30 times of 94° C. for 20 seconds, 60° C. for 20 seconds, and 72° C. for 90 seconds, followed by further reaction at 72° C. for 7 minutes.
# 2. DGAT2 Expression and Preparation of Membrane Protein
# Recombinant human DGAT2 protein was expressed in Sf-21 cells, which are insect cells, by using the BacPack baculovirus expression system (Clontech). The brief manufacturing process is as follows. First, the pBacPAK9-DGAT2 expression vector was transfected with BacPAK6 virus DNA (Bsu36I digest) into sf21 cells using Bacfectin to prepare a recombinant DGAT2 expressing baculovirus. The thus prepared baculovirus was infected with Sf-21 cells at 10 MOI (multiplicity of infection), and after 72 hours, infected insect cells were collected and membrane proteins were isolated. For membrane protein separation, the cell pellet was dissolved in a sucrose solution containing 250 mM sucrose, 10 mM Tris (pH 7.4), and 1 mM ethylenediamine-tetraacetic acid (EDTA), and then homogenized by using a dounce homogenizer, and the supernatant was taken by centrifuging at 600×g for 15 minutes, and centrifuged at 100,000×g for 1 hour to discard the supernatant, and the remaining pellet was resuspended in 20 mM HEPES buffer (pH 7.4). The prepared DGAT2 overexpressing membrane protein was dispensed in 100 μl and stored at −80° C. until use. Protein concentration was quantified by using the BCA Protein Assay Kit (Thermo Scientific).
# 3. Measurement of Inhibitory Effect Against DGAT2 Enzyme Activity
# In vitro DGAT2 analysis was performed using a Phospholipid Flash Plate (PerkinElmer) based on the principle of SPA (Scintilation Proximity Assay). First, DGAT2 inhibition compounds serially diluted 5 times from 3 nM to 10 μM (final concentration, 1% DMSO) were mixed in a buffer solution containing 2 μg DGAT2-membrane protein and 20 mM HEPES, 20 mM MgCl2, 1 mg/mL BSA, 50 μM 1,2 sn-oleoyl glycerol (Sigma), put in a 96-well flash plate (FlashPlate) and reacted at 37° C. for 20 minutes, and then 1 μM [14C] ole oil CoA (PerkinElmer, NEC651050UC) was added to be a final volume of 100 μL and further reacted at 37° C. for 15 minutes. After the enzymatic reaction was completed, 100 μL of isopropanol was added, the plate was sealed with a film, and the plate was shaken slowly in a plate shaker. The next day, the amplified scintillation signal (cpm) in Topcounter (Packard) was measured to measure the degree of production of [14C]-labeled triacyl glycerol (TG) as a reaction product. The measured value when the compound was not treated was used as a positive control, and the measured value of the compound treated group was calculated as a relative % to measure the inhibition effect of the compound on TG production. The IC50 value, which is the concentration of the compound that inhibits TG production by 50%, was determined by treating the response value according to the compound concentration with a nonlinear regression curve using PRISM (Graphpad Inc.).
# Chain of human DGAT2 (Q96PD7 whole entry): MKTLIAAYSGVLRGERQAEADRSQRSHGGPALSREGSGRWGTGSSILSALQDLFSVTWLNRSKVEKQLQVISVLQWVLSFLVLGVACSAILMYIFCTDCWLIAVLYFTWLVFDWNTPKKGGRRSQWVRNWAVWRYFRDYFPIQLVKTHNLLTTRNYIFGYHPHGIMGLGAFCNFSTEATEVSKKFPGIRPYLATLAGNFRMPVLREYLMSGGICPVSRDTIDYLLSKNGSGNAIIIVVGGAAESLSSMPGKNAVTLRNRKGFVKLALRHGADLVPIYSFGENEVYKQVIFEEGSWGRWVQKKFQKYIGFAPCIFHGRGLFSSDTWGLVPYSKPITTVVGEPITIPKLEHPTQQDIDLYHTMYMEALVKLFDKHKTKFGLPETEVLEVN
row,SMILES,IC50 [µM]
1,"CCOc1ccccc1Oc1cncc(-c2cncc(NC(=O)CCc3ccccc3)n2)c1 [Example 1, N-(6-(5-(2-ethoxyphenoxy)pyridin-3-yl)pyrazin-2-yl)-3-phenylpropanamide]",0.035
2,"CCOc1ccccc1Oc1cncc(-c2cncc(NC(=O)Cc3ccc(CC(=O)OC)cc3)n2)c1 [Example 2, methyl 2-(4-(2-((6-(5-(2-ethoxyphenoxy)pyridin-3-yl)pyrazin-2-yl)amino)-2-oxoethyl)phenyl)acetate]",0.027
3,"CCOc1ccccc1Oc1cncc(-c2cncc(NC(=O)Cc3ccc(CC(=O)O)cc3)n2)c1 [Example 3, 2-(4-(2-((6-(5-(2-ethoxyphenoxy)pyridin-3-yl)pyrazin-2-yl)amino)-2-oxoethyl)phenyl)acetic acid]",3.4
4,"CCOc1ccccc1Oc1cncc(-c2cncc(NC(=O)CCc3ccc(CC(=O)O)cc3)n2)c1 [Example 4, 2-(4-(3-((6-(5-(2-ethoxyphenoxy)pyridin-3-yl)pyrazin-2-yl)amino)-3-oxopropyl)phenyl)acetic acid]",0.29
5,"CCOc1ccccc1Oc1cncc(-c2cncc(NC(=O)CCc3ccc(C(C)(C)C(=O)OC)cc3)n2)c1 [Example 5, methyl 2-(4-(3-((6-(5-(2-ethoxyphenoxy)pyridin-3-yl)pyrazin-2-yl)amino)-3-oxopropyl)phenyl)-2-methylpropanoate]",0.011
6,"CCOc1ccccc1Oc1cncc(-c2cncc(NC(=O)Cc3ccc(CC(C)(C)C(=O)O)cc3)n2)c1 [Example 7, 3-(4-(2-((6-(5-(2-ethoxyphenoxy)pyridin-3-yl)pyrazin-2-yl)amino)-2-oxoethyl)phenyl)-2,2-dimethylpropanoic acid]",0.036
7,"CCOc1ccccc1Oc1cncc(-c2cncc(Nc3nccc(N4CCC[C@@H](C(=O)O)C4)n3)n2)c1 [Example 8, (R)-1-(2-((6-(5-(2-ethoxyphenoxy)pyridin-3-yl)pyrazin-2-yl)amino)pyrimidin-4-yl)piperidine-3-carboxylic acid]",1.8
8,"CCOc1ccccc1Oc1cncc(-c2cncc(Nc3cccc(-c4cccc(CC(C)(C)C(=O)O)c4)n3)n2)c1 [Example 9, 3-(3-(6-((6-(5-(2-ethoxyphenoxy)pyridin-3-yl)pyrazin-2-yl)amino)pyridin-2-yl)phenyl)-2,2-dimethylpropanoic acid]",0.16
9,"CCOc1ccccc1Oc1cccc(-c2cncc(NC(=O)CCc3ccc(OC(C)(C)C(=O)O)cc3)n2)c1 [Example 13, 2-(4-(3-((6-(3-(2-ethoxyphenoxy)phenyl)pyrazin-2-yl)amino)-3-oxopropyl)phenoxy)-2-methylpropanoic acid]",0.33
10,"CCOc1ccccc1Oc1cccc(-c2cncc(NC(=O)Cc3ccc(CC(C)(C)C(=O)O)cc3)n2)c1 [Example 15, 3-(4-(2-((6-(3-(2-ethoxyphenoxy)phenyl)pyrazin-2-yl)amino)-2-oxoethyl)phenyl)-2,2-dimethylpropanoic acid]",0.013
11,"CCOc1ccccc1Oc1cccc(-c2cncc(NC(=O)C(C)(C)c3ccc(CC(C)(C)C(=O)O)cc3)n2)c1 [Example 18, 3-(4-(1-((6-(3-(2-ethoxyphenoxy)phenyl)pyrazin-2-yl)amino)-2-methyl-1-oxopropan-2-yl)phenyl)-2,2-dimethylpropanoic acid]",0.022
12,CCOc1ccccc1Oc1cccc(-c2cncc(NC(=O)Cc3ccc(OC(C)(C)C(=O)O)cc3)n2)c1 [Example 19],0.43
13,"CCOc1ccccc1Oc1cccc(-c2cncc(Nc3nccc(-c4ccc(CC(=O)O)cc4)n3)n2)c1 [Example 20, 2-(4-(2-((6-(3-(2-ethoxyphenoxy)phenyl)pyrazin-2-yl)amino)pyrimidin-4-yl)phenyl)acetic acid]",3.9
14,"CCOc1ccccc1Oc1cccc(-c2cncc(Nc3nccc(O[C@H]4CC[C@H](C(=O)O)CC4)n3)n2)c1 [Example 21, (1r,4r)-4-((2-((6-(3-(2-ethoxyphenoxy)phenyl)pyrazin-2-yl)amino)pyrimidin-4-yl)oxy)cyclohexane-1-carboxylic acid]",1.2
15,"CCOc1ccccc1Oc1cccc(-c2cncc(NC(=O)CCc3ccccc3)n2)n1 [Example 22, N-(6-(6-(2-ethoxyphenoxy)pyridin-2-yl)pyrazin-2-yl)-3-phenylpropanamide]",2.1
16,"CCOc1ccccc1Oc1cccc(-c2cncc(NC(=O)Cc3ccc(CC(C)(C)C(=O)O)cc3)n2)n1 [Example 23, 3-(4-(2-((6-(6-(2-ethoxyphenoxy)pyridin-2-yl)pyrazin-2-yl)amino)-2-oxoethyl)phenyl)-2,2-dimethylpropanoic acid]",0.061
17,"CCOc1ccccc1Oc1cccc(-c2cncc(Nc3nccc(N4CCC[C@@H](C(=O)O)C4)n3)n2)n1 [Example 24, (R)-1-(2-((6-(6-(2-ethoxyphenoxy)pyridin-2-yl)pyrazin-2-yl)amino)pyrimidin-4-yl)piperidine-3-carboxylic acid]",7.4
18,"CCOc1ccccc1Oc1cccc(-c2cncc(Nc3cccc(-c4cccc(CC(C)(C)C(=O)O)c4)n3)n2)n1 [Example 25, 3-(3-(6-((6-(6-(2-ethoxyphenoxy)pyridin-2-yl)pyrazin-2-yl)amino)pyridin-2-yl)phenyl)-2,2-dimethylpropanoic acid]",0.45
19,"CCOc1cccnc1Oc1cccc(-c2cncc(NC(=O)CCc3ccc(C(C)(C)C(=O)O)cc3)n2)c1 [Example 26, 2-(4-(3-((6-(3-((3-ethoxypyridin-2-yl)oxy)phenyl)pyrazin-2-yl)amino)-3-oxopropyl)phenyl)-2-methylpropanoic acid]",0.021
20,"CCOc1cccnc1Oc1cccc(-c2cncc(NC(=O)Cc3ccc(CC(C)(C)C(=O)O)cc3)n2)c1 [Example 27, 3-(4-(2-((6-(3-((3-ethoxypyridin-2-yl)oxy)phenyl)pyrazin-2-yl)amino)-2-oxoethyl)phenyl)-2,2-dimethylpropanoic acid]",0.0074
21,"CCOc1cccnc1Oc1cccc(-c2cncc(NC(=O)CCc3ccc(OC(C)(C)C(=O)O)cc3)n2)c1 [Example 28, 2-(4-(3-((6-(3-((3-ethoxypyridin-2-yl)oxy)phenyl)pyrazin-2-yl)amino)-3-oxopropyl)phenoxy)-2-methylpropanoic acid]",0.21
22,"CCOc1cccnc1Oc1cccc(-c2cncc(NC(=O)C(C)(C)c3ccc(CC(C)(C)C(=O)O)cc3)n2)c1 [Example 29, 3-(4-(1-((6-(3-((3-ethoxypyridin-2-yl)oxy)phenyl)pyrazin-2-yl)amino)-2-methyl-1-oxopropane-2-yl)phenyl)-2,2-dimethylpropanoic acid]",0.0067
23,"CCOc1cccnc1Oc1cccc(-c2cncc(Nc3nccc(N4CCC[C@@H](C(=O)O)C4)n3)n2)c1 [Example 31, (R)-1-(2-((6-(3-((3-ethoxypyridin-2-yl)oxy)pheny)pyrazin-2-yl)amino)pyrimidin-4-yl)piperidine-3-carboxylic acid]",9.2
24,"CCOc1cccnc1Oc1cccc(-c2cncc(Nc3cccc(-c4cccc(CC(C)(C)C(=O)O)c4)n3)n2)c1 [Example 32, 3-(3-(6-((6-(3-((3-ethoxypyridin-2-yl)oxy)phenyl)pyrazin-2-yl)amino)pyridin-2-yl)phenyl)-2,2-dimethylpropanoic acid]",0.07
25,"CCOc1cccnc1Oc1cccc(-c2cncc(Nc3nccc(O[C@H]4CC[C@H](C(=O)O)CC4)n3)n2)c1 [Example 33, (1r,4r)-4-((2-((6-(3-((3-ethoxypyridin-2-yl)oxy)phenyl)pyrazin-2-yl)amino)pyrimidin-4-yl)oxy)cyclohexane-1-carboxylic acid]",3.4

# — patent publication US20230322706A1, “NOVEL BIARYL DERIVATIVE USEFUL AS DIACYLGLYCEROL ACYLTRANSFERASE 2 INHIBITOR, AND USE THEREOF” (LG CHEM, LTD., priority 2020, published 2023)
